US10800792B2, “Inhibitors of Bruton's tyrosine kinase and method of their use” (JANSSEN PHARMACEUTICA NV, priority 2015, dated 2020)

Target: unphosphorylated-BTK kinase domain (UP-BTK), GST-tagged human BTK (389-659aa) (Homo sapiens (Human), UniProt Q06187)
Experiment: BTK kinase Lanthascreen binding assay
Details: pIC50 = negative log of the IC50 in molar
Procedure, shortened: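 Measures how well compounds compete with a fluorescence-labelled tracer for binding to BTK in its unphosphorylated state. IC50 values were fitted and expressed as pIC50 (negative logarithm of the molar IC50).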

[1] = 60 minutes incubation, 50 nM Tracer 236
[2] = Lanthascreen tracer competition, 60 minutes incubation
[3] = unphosphorylated-BTK kinase domain, 50 nM Tracer 236, 60 minutes
[4] = unphosphorylated-BTK kinase domain, 60 minutes incubation, 50 nM Tracer 236

unphosphorylated-BTK kinase domain (UP-BTK), GST-tagged human BTK (389-659aa), sequence (Q06187 389-659): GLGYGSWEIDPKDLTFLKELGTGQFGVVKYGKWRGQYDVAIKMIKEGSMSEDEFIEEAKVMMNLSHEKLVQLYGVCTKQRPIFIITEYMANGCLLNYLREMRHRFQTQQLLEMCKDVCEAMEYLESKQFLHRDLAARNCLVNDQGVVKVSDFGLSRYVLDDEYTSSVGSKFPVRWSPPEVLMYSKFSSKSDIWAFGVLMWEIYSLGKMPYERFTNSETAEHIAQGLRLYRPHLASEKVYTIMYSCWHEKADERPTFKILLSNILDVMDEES

In the case of Cc1cc(Oc2ccccc2)ccc1N1C(=O)Nc2c(C(=O)N[C@H]3CNC[C@H]3F)sc3nccc1c23 [Example 154, N-((3S,4R)-4-Fluoropyrrolidin-3-yl)-5-(2-methyl-4-phenoxyphenyl)-4-oxo-4,5-dihydro-3H-1-thia-3,5,8-triazaacenaphthylene-2-carboxamide], the “BTK_I_binding pIC50” value [1] is reported as 7.2.
In the case of C=CC(=O)N1CCC[C@@H](NC(=O)c2sc3nccc4c3c2NC(=O)N4c2cccc(CC(C)C)c2)C1 [Example 689, (R)—N-(1-Acryloylpiperidin-3-yl)-5-(3-isobutylphenyl)-4-oxo-4,5-dihydro-3H-1-thia-3,5,8-triazaacenaphthylene-2-carboxamide], the “BTK_I_binding pIC50” value [2] is reported as 7.6.
In the case of O=C(N[C@@H]1CCCNC1)c1sc2nccc3c2c1NC(=O)N3c1cccc(C(F)(F)F)c1 [Example 347, (R)-4-Oxo-N-(piperidin-3-yl)-5-(3-(trifluoromethyl)phenyl)-4,5-dihydro-3H-1-thia-3,5,8-triazaacenaphthylene-2-carboxamide], the “BTK_I_binding pIC50” value [3] is reported as <5.
CN1CCC[C@@H](NC(=O)c2sc3nccc4c3c2NC(=O)N4c2ccc(Oc3ccccc3)cc2)C1 [Example 182, (R)—N-(1-Methylpiperidin-3-yl)-4-oxo-5-(4-phenoxyphenyl)-4,5-dihydro-3H-1-thia-3,5,8-triazaacenaphthylene-2-carboxamide] was tested, and the “BTK_I_binding pIC50” value [1] was 6.7.
With Cc1cc(Oc2ccccc2)ccc1N1C(=O)Nc2c(C(=O)N[C@H]3CCCNC3)sc3nccc1c23 [Example 912, (S)-5-(2-Methyl-4-phenoxyphenyl)-4-oxo-N-(piperidin-3-yl)-4,5-dihydro-3H-1-thia-3,5,8-triazaacenaphthylene-2-carboxamide] the “BTK_I_binding pIC50” value [4] was 6.5.
With C=CC(=O)N1CCC[C@@H](NC(=O)c2sc3nccc4c3c2NC(=O)N4c2ccc(-c3cccs3)cc2)C1 [Example 397, (R)—N-(1-Acryloylpiperidin-3-yl)-4-oxo-5-(4-(thiophen-2-yl)phenyl)-4,5-dihydro-3H-1-thia-3,5,8-triazaacenaphthylene-2-carboxamide] the “BTK_I_binding pIC50” value [3] was 6.4.
With CN1CCC[C@@H](NC(=O)c2sc3nccc4c3c2NC(=O)N4Cc2ccc(Oc3ccccc3)cc2)C1 [Example 411, (R)—N-(1-Methylpiperidin-3-yl)-4-oxo-5-(4-phenoxybenzyl)-4,5-dihydro-3H-1-thia-3,5,8-triazaacenaphthylene-2-carboxamide] the “BTK_I_binding pIC50” value [3] was <5.
For O=C(N[C@@H]1CCCNC1)c1sc2nccc3c2c1NC(=O)N3c1cc(-c2ccccc2)ccn1 [Example 610, (R)-4-Oxo-5-(4-phenylpyridin-2-yl)-N-(piperidin-3-yl)-4,5-dihydro-3H-1-thia-3,5,8-triazaacenaphthylene-2-carboxamide], the “BTK_I_binding pIC50” value [2] was 6.2.
In the case of COc1ccccc1Oc1ccc(N2C(=O)Nc3c(C(=O)NC4CCN(C#N)CC4)sc4nccc2c34)c(C)c1 [Example 884, N-(1-Cyanopiperidin-4-yl)-5-(4-(2-methoxyphenoxy)-2-methylphenyl)-4-oxo-4,5-dihydro-3H-1-thia-3,5,8-triazaacenaphthylene-2-carboxamide], the “BTK_I_binding pIC50” value [2] is reported as 7.0.
In the case of C=CC(=O)N1CCC[C@@H](NC(=O)c2sc3nccc4c3c2NC(=O)N4c2ccc(OC3CCOCC3)cc2C)C1 (single isomer, unassigned) [Example 813, (R)—N-(1-Acryloylpiperidin-3-yl)-5-(*S)-(2-methyl-4-((tetrahydro-2H-pyran-4-yl)oxy)phenyl)-4-oxo-4,5-dihydro-3H-1-thia-3,5,8-triazaacenaphthylene-2-carboxamide], the IC50 (Lanthascreen tracer competition, 60 minutes incubation, read-out: BTK_I_binding pIC50 (converted)) is reported as > 1000 nM.
Cc1cc(OC2CCCC2)ccc1N1C(=O)Nc2c(C(=O)N[C@@H]3CCCNC3)sc3nccc1c23 [Example 919, (R)-5-(4-(cyclopentyloxy)-2-methylphenyl)-4-oxo-N-(piperidin-3-yl)-4,5-dihydro-3H-1-thia-3,5,8-triazaacenaphthylene-2-carboxamide] was tested, and the “BTK_I_binding pIC50” value [4] was 6.4.
